Measured values from PMC10489911 (2023).

Legend:
[1] = tested on: AG3(T2AG3)3 (G4-Tel, telomeric G4) (DNA, G4) AGGGTTAGGGTTAGGGTTAGGG; test: UV-Vis titration; settings: K+ 100 mM KCl, plus potassium phosphate, 20 mM phosphate, pH 6.8, ligand 2 μM
[2] = tested on: AG3(T2AG3)3 (G4-Tel, telomeric G4) (DNA, G4) AGGGTTAGGGTTAGGGTTAGGG; test: CD melting at 295 nm; settings: K+ 100 mM KCl, plus potassium phosphate; 20 mM phosphate, pH 6.8; 2 equivalents of ligand; Tm 56.1 alone
[3] = tested on: AG3(T2AG3)3 (G4-Tel, telomeric G4) (DNA, G4) AGGGTTAGGGTTAGGGTTAGGG; test: G4-FID fluorescence displacement; settings: K+ 100 mM KCl, plus potassium phosphate, PBS pH 6.8, 25 °C, thiazole orange displaced

| Kb ([1]; ligand aggregates in buffer) | ΔTm [2] | DC50 [3] | Kb [1] | DC50 ([3]; table prints 0.90 ± 0.04, its ratio 2.01 fits 0.99) | DC50 ([3]; text prints 1.04) | Structure (SMILES) |
| --- | --- | --- | --- | --- | --- | --- |
| 7.05 ± 1.31 × 10^6 M^−1 | 7.4 °C | 0.42 ± 0.08 µM |  |  |  | C[n+]1ccc(-c2cc3c(cc2-c2cc[n+](C)cc2)-c2nc-3c(-c3ccccc3)c3ccc([n-]3)c(-c3ccccc3)c3nc(c(-c4ccccc4)c4ccc([n-]4)c2-c2ccccc2)-c2cc(-c4cc[n+](C)cc4)c(-c4cc[n+](C)cc4)cc2-3)cc1.[Zn+2] |
|  | 2.3 °C |  | 6.01 ± 1.11 × 10^6 M^−1 | 0.99 µM |  | C[n+]1ccc(-c2cc3c(cc2-c2cc[n+](C)cc2)-c2nc-3c(-c3ccccc3)c3ccc([nH]3)c(-c3ccccc3)c3nc(c(-c4ccccc4)c4ccc([nH]4)c2-c2ccccc2)-c2cc(-c4cc[n+](C)cc4)c(-c4cc[n+](C)cc4)cc2-3)cc1 |
| 3.71 ± 1.28 × 10^6 M^−1 | 8.5 °C |  |  |  | 1.02 ± 0.06 µM | C[n+]1ccc(-c2cc3c(cc2-c2cc[n+](C)cc2)-c2nc-3c(-c3ccccc3)c3ccc([n-]3)c(-c3ccccc3)c3nc(c(-c4ccccc4)c4ccc([n-]4)c2-c2ccccc2)-c2cc(-c4cc[n+](C)cc4)c(-c4cc[n+](C)cc4)cc2-3)cc1.[Ni+2] |
